Our source for the ΔTm values is article PMC7158045 (BMC Plant Biology, 2020).

Holding throughout (experiment): biochemical
Assay [1] addresses T1, ZmDRIK1-R187-P492 (Zea mays, UniProt C0P4K9).
T1 construct: kinase domain, R187-P492
T1 sequence (C0P4K9 1-514): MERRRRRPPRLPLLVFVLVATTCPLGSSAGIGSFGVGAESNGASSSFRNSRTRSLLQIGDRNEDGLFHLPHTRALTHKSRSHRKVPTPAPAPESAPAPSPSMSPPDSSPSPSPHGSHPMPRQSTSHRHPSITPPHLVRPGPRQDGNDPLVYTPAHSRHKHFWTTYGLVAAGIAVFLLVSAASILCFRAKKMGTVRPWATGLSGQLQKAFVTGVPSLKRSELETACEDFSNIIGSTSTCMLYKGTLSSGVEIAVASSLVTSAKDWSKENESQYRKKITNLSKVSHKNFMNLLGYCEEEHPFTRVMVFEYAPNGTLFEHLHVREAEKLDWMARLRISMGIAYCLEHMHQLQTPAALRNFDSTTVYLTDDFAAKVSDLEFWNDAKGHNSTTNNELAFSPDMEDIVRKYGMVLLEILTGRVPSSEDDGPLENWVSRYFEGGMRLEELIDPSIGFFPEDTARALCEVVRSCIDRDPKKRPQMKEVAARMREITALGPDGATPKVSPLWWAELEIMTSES

Assay [2] has as its target T2, ZmDRIK1-K217-S514 (Zea mays, UniProt C0P4K9).
T2 construct: kinase domain, K217-S514
T2 sequence (C0P4K9 1-514): T1 sequence (C0P4K9 1-514)

The target of assay [3] is T3, ZmDRIK1 (DROUGHT RESPONSIVE INACTIVE KINASE 1), kinase domain (Zea mays, UniProt C0P4K9).
T3 construct: gene ZEAMMB73_Zm00001d028770; ZmDRIK1-KD R187-S514 (kinase domain)
T3 sequence (C0P4K9 187-514): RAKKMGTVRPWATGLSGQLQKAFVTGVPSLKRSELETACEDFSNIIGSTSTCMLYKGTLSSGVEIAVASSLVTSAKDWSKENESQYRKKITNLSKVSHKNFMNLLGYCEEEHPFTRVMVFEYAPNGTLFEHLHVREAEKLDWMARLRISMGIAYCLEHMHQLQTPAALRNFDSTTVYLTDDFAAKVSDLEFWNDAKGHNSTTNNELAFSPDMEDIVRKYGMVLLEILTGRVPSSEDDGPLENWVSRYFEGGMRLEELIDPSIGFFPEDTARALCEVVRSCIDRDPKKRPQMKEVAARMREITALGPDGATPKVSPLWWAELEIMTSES

Assay [4] has as its target T4, ZmDRIK1-K217-P492 (Zea mays, UniProt C0P4K9).
T4 construct: kinase domain, K217-P492
T4 sequence (C0P4K9 1-514): T1 sequence (C0P4K9 1-514)

[5] abbreviates: read-out: dTm B, DSF, Boltzmann fit, 0.1% DMSO.
The mark [6] stands for this setting: read-out: dTm B, sheet ZmDRIK1-K217-S514;, DSF, Boltzmann fit, 0.1% DMSO.
[7] abbreviates: read-out: dTm B, sheet ZmDRIK1-R187-S514;, DSF, Boltzmann fit, 0.1% DMSO.
[8] abbreviates: read-out: dTm B, sheet ZmDRIK1-K217-P492;, DSF, Boltzmann fit, 0.1% DMSO.

Each structure is given as a SMILES string. Counter-ions that a name gives are not always drawn. Like-named read-outs stand apart in the source and are kept apart here.

Consider `Cc1cc(N2CCOCC2)cc2[nH]c(-c3c(NC[C@@H](O)c4cccc(Cl)c4)cc[nH]c3=O)nc12` [BMS-536924], for which the ΔTm at 10 µM is -0.284 °C in assay [1] (setting [5]), -0.645 °C in assay [2] (setting [6]), -0.852 °C in assay [3] (setting [7]) and -1.5 °C in assay [4] (setting [8]).
In the same order, the values of `CCNc1nc(Nc2cc(F)c(C(=O)N3CCOCC3)cc2OC)ncc1C(F)(F)F` [GNE-7915] are -0.506 °C, -0.456 °C, -0.927 °C and -0.898 °C.
In the case of `C#Cc1cccc(Nc2ncnc3cc(OCCOC)c(OCCO)cc23)c1` [OSI-420], the ΔTm at 10 µM in assay [1] (setting [5]) was -0.201 °C; in assay [2] (setting [6]), -0.412 °C; in assay [3] (setting [7]) it was -1.2 °C; in assay [4] (setting [8]), -0.652 °C.
In the same order, the values of `CN1CCCN(C(=O)c2cccc(-c3ccc(/C=C4/C(=O)Nc5ccc(Cl)cc54)o3)c2)CC1` [CX-6258 HCl] are -0.49 °C, -0.341 °C, -1.14 °C and -1.21 °C.
With `COc1ccc(F)c(F)c1C(=O)c1cnc(NC2CCN(S(C)(=O)=O)CC2)nc1N` [R547], the ΔTm at 10 µM in assay [1] (setting [5]) is -0.297 °C; in assay [2] (setting [6]), -0.339 °C; in assay [3] (setting [7]) it was -0.939 °C; in assay [4] (setting [8]) it was -1.09 °C.
On the same counts, the results for `COc1cc(CCc2cc(NC(=O)c3ccc(N4C[C@@H](C)N[C@@H](C)C4)cc3)n[nH]2)cc(OC)c1` [AZD4547] are 0.421 °C, 0.296 °C, 0.239 °C and 0.194 °C.
In the same order, the values of `CCN(CC)CCNC(=O)c1c(C)[nH]c(/C=C2\C(=O)Nc3ccc(F)cc32)c1C` [Sunitinib Malate] are -0.348 °C, -0.287 °C, -0.745 °C and -0.864 °C.
On the same counts, the results for `CN1CCN(C2CCN(C(=O)Nc3cc(Oc4ccc(NC(=O)C5(C(=O)Nc6ccc(F)cc6)CC5)c(F)c4)ccn3)CC2)CC1` [Golvatinib (E7050)] are -0.232 °C, -0.278 °C, -0.382 °C and -0.473 °C.
Consider `CC1(COc2ccc3c(c2)ncn3-c2ccc3cccc(N4CCC(N)CC4)c3n2)COC1` [Crenolanib (CP-868596)], for which the ΔTm at 10 µM in assay [1] (setting [5]) was -0.209 °C; in assay [2] (setting [6]), -0.0308 °C; in assay [3] (setting [7]) it was -0.526 °C; in assay [4] (setting [8]), -0.453 °C.
On the same counts, the results for `C[C@H](NC(=O)/C(C#N)=C/c1cccc(Br)n1)c1ccccc1` [WP1066] are -2 °C, -2.48 °C, -3.39 °C and -4.29 °C.
As for `CCOc1cc(N2CCC(O)CC2)ccc1Nc1ncc2c(n1)N(C)c1ccccc1C(=O)N2C` [XMD8-92], the ΔTm at 10 µM in assay [1] (setting [5]) is -0.38 °C; in assay [2] (setting [6]) it was -0.663 °C; in assay [3] (setting [7]), -0.666 °C; in assay [4] (setting [8]), -1.16 °C.
On the same counts, the results for `N#CC1(c2ccc(NC(=O)c3cccnc3NCc3ccncc3)cc2)CCCC1` [Apatinib] are -0.28 °C, -0.311 °C, -0.808 °C and -0.944 °C.
As to `CCS(=O)(=O)Nc1ccc2c(c1)/C(=C(/Nc1ccc(CN3CCCCC3)cc1)c1ccccc1)C(=O)N2` [Hesperadin], the ΔTm at 10 µM in assay [1] (setting [5]) was -0.086 °C; in assay [2] (setting [6]), -0.308 °C; in assay [3] (setting [7]), -0.801 °C; in assay [4] (setting [8]) it was 0.108 °C.
On the same counts, the results for `CN1CCN(c2ccc(OC(F)(F)F)c(Nc3ncc4c(n3)-c3c(c(C(N)=O)nn3CCO)CC4)c2)CC1` [NMS-P937 (NMS1286937)] are -0.749 °C, -0.517 °C, -1.15 °C and -1.1 °C.
Consider `CCNC(=O)Nc1ccc(-c2nc3c(c(N4CCOC[C@@H]4C)n2)CCN(C2COC2)C3)cc1` [GDC-0349], for which the ΔTm at 10 µM was -0.218 °C in assay [1] (setting [5]), -0.392 °C in assay [2] (setting [6]), -0.899 °C in assay [3] (setting [7]) and -0.749 °C in assay [4] (setting [8]).
On to `Cc1ccc(NC(=O)c2ccc(CN3CCN(C)CC3)cc2)cc1Nc1nc(-c2cccnc2)cs1` [Masitinib (AB1010)], for which the ΔTm at 10 µM was -0.246 °C in assay [1] (setting [5]), -0.217 °C in assay [2] (setting [6]), -0.818 °C in assay [3] (setting [7]) and -0.773 °C in assay [4] (setting [8]).
As for `Oc1c2ccccc2c2c3c(cccc13)N=N2` [SP600125], the ΔTm at 10 µM was -0.115 °C in assay [1] (setting [5]), -0.115 °C in assay [2] (setting [6]), -0.63 °C in assay [3] (setting [7]) and -1.06 °C in assay [4] (setting [8]).
As for `Cc1c(Cn2c(C)nc3c(C(=O)O)cc(N4CCOCC4)cc32)cccc1C(F)(F)F` [GSK2636771], the ΔTm at 10 µM in assay [1] (setting [5]) was -0.37 °C; in assay [2] (setting [6]), -0.699 °C; in assay [3] (setting [7]), -0.589 °C; in assay [4] (setting [8]) it was -0.98 °C.
On the same counts, the results for `CC(C)(C)c1cc(NC(=O)Nc2ccc(-c3cn4c(n3)sc3cc(OCCN5CCOCC5)ccc34)cc2)no1` [Quizartinib (AC220)] are -3.69 °C, -1.21 °C, -11.5 °C and -4.77 °C.
On the same counts, the results for `Cc1cc(Nc2ncc(Cl)c(Nc3ccccc3S(=O)(=O)C(C)C)n2)c(OC(C)C)cc1C1CCNCC1` [LDK378] are -0.522 °C, -0.431 °C, -0.744 °C and -1.23 °C.
On the same counts, the results for `Nc1ncnc2c1c(-c1cnc3[nH]ccc3c1)nn2C1CCCC1` [PP121] are -0.369 °C, -0.432 °C, -0.595 °C and -1.06 °C.
For the compound `Cc1c(NC(=O)c2ccc(C(C)(C)C)cc2)cccc1-c1cn(C)c(=O)c(Nc2ccc(C(=O)N3CCOCC3)cc2)n1` [CGI1746], the ΔTm at 10 µM in assay [1] (setting [5]) is -0.389 °C; in assay [2] (setting [6]) it was -0.561 °C; in assay [3] (setting [7]), -1.61 °C; in assay [4] (setting [8]), -1.51 °C.
With `C[C@@H]1CN(CC(=O)Nc2ccc3c(c2)Cc2cccc(-c4cc(=O)cc(N5CCOCC5)o4)c2S3)C[C@H](C)O1` [KU-60019], the ΔTm at 10 µM in assay [1] (setting [5]) is -0.366 °C; in assay [2] (setting [6]), -0.426 °C; in assay [3] (setting [7]), -1.17 °C; in assay [4] (setting [8]), -1.19 °C.
On the same counts, the results for `CCc1nc(-c2cccc(C)c2)c(-c2ccnc(NC(=O)c3ccccc3)c2)s1` [TAK-715] are -0.496 °C, -0.442 °C, -0.0163 °C and -1.08 °C.
In the same order, the values of `COc1ccc2c(Oc3ccc(NC(=O)c4c(C)n(CC(C)(C)O)n(-c5ccccc5)c4=O)nc3)ccnc2c1` [AMG-458] are -0.312 °C, -0.329 °C, -0.675 °C and -0.94 °C.
In the same order, the values of `Cn1cc(-c2ccc3nnc(Sc4ccc5ncccc5c4)n3n2)cn1` [SGX-523] are -0.0185 °C, -0.351 °C, -0.576 °C and -0.7 °C.
Regarding `CC(C)(C)n1nc(-c2ccc(Cl)cc2)c2c(N)ncnc21` [PP2], the ΔTm at 10 µM was -0.394 °C in assay [1] (setting [5]), -0.458 °C in assay [2] (setting [6]), -0.713 °C in assay [3] (setting [7]) and -1.25 °C in assay [4] (setting [8]).
In the same order, the values of `O=c1cc(N2CCOCC2)oc2c(-c3ccccc3)cccc12` [LY294002] are -0.0828 °C, -0.184 °C, -0.881 °C and -0.874 °C.
On the same counts, the results for `CC(C)(C)c1cnc(CSc2cnc(NC(=O)C3CCNCC3)s2)o1` [SNS-032 (BMS-387032)] are -0.103 °C, -0.203 °C, -1.09 °C and -0.977 °C.
As for `Cc1ccccc1CN1C(=O)C2=C(CCN(Cc3ccccc3)C2)N2CCN=C12` [TIC10], the ΔTm at 10 µM in assay [1] (read-out: dTm B) was -0.155 °C; in assay [2] (read-out: dTm B), -0.395 °C; in assay [3] (read-out: dTm B) it was -0.768 °C; in assay [4] (read-out: dTm B), 0.685 °C.
